Series [1] can be described thus: Pharmacokinetics (PK) study in SD rat (IV, IP, PO; LC-MS/MS). Type of series: in vivo. The settings on record: Sprague-Dawley, serum. The protocol: SD rat were used to study the PK of ALK PROTAD compounds. ALK PROTAD compounds SIAIS164008, SIAIS164018, SIAIS164023 and SIAIS151118 were administrated into SD rat via three different routes: IV (Intravenous Injection), IP (Intraperitoneal Injection) and PO ([…]). Blood samples at different sampling time points up to 24 hours post dosing were collected from each animal and analyzed with LC-MS/MS to calculate the PK for each chemical.

Series [2] has as its system PC9 (EGFR, exon 19 del) cells. The series can be described thus: Growth inhibition IC50 in EGFR mutant lung adenocarcinoma PC9 cells. It is filed as cell-based. To be noted: Homo sapiens, PC-9; PC9 cells, CTB, n ≥ 3; read-out: Half Inhibitory Concentration (IC50) Mean.
Description: (§3) SR (NPM-ALK) and NCI-H2228 (EML4-ALK, V3) cells were purchased from ATCC. […] All Cells were cultured in RPMI1640 medium with 10% FBS and Penicillin-Streptomycin in 37° C. incubator with 5% CO2.
(§4) Cells were seeded at specific density in 96 well plates one day before treatment. […] Viable cells were measured via CCK8 reagent and IC50s were calculated via Prism Graphad. Experiments were repeated at least three times.
A further series concerns the target T1, Ba/F3 (EML4-ALK/WT) (Homo sapiens, UniProt Q9UM73).
T1 construct: Q9HC35 (Echinoderm microtubule-associated protein-like 4)
The series can be described thus: Growth inhibition IC50 in Ba/F3 cells expressing EML4-ALK wild type. It is filed as cell-based.

The next series has as its system SR (NPM-ALK) cells. Put plainly: Growth inhibition IC50 in ALCL SR cells (CCK8/WST, 72 hours). The settings on record: 72 h, SR cells, WST; Brigatinib-based PROTAD molecules (Table 3). It is filed as cell-based.
The subject of a further series is H2228 cells (EML4-ALK). Put plainly: Colony formation assay in H2228 cells. It is filed as cell-based. To be noted: about 2 weeks. The protocol: (§1) Cell were digested to become single cell suspension. Cells were seeded in the intensity of 250 cells/well in 12 well plate. Treated cells at the concentration of 100, 250, 500 nM. Fixed cells 2-3 weeks after and stained cells with crystyl violate.
In order to see the effect of ALK PROTAD compounds on the colony formation ability of cancer cells, EML4-ALK mutant lung cancer cells H2228 were firstly seeded in 12 well plate at the density of 200 cells per well. Cells were treated with different ALK PROTAD compounds at different concentration for about 2 weeks.

Series [3] has as its system ALK protein in H2228 (EML4-ALK) cells. Put plainly: Western blot of ALK protein level, ALK phosphorylation and downstream signaling in H2228 cells. Type of series: cell-based. The protocol:
Cancer cells were seeded in 1 ml RPMI1640 medium in 24-well plate at the density of 3×10^5 or 1.5×10^5 cells/ml. The next day cells were treated with different concentration of drugs for 16 hours. Then cells were washed twice with PBS and lyzed in RIPA lysis buffer with Halt Proteinase and Phosphotase inhibitor. Equal amount of proteins were loaded to run SDS-PAGE gels after denature. The gels were blotted to PVDF membrane. After incubating with first and secondary antibodies, the images were developed using SuperSignal West Pico Chemiluminescent Substrate.
The effect of Brigtinib based PROTAD molecules on the ALK protein total level were studied by western blot in ALCL SR (NPM-ALK) cell line and lung adenocarcinoma cell line H2228 and H3122 (EML4-ALK).
The effects of compounds SIAIS164008 and SIAIS164018 of the present invention on the activation of ALK mediated signaling pathways were also studied in SR cells and H2228 cells. […] The overall effect of compound of SIAIS164018 was better than that of SIAIS164008.
On the technique in general: A western blot detects proteins with antibodies after separation by electrophoresis.

A further series addresses T2, Ba/F3 (EML4-ALK/L1196M) (Homo sapiens, UniProt Q9UM73, L1196M, cells depend on it).
T2 construct: Q9HC35 (Echinoderm microtubule-associated protein-like 4)
The series can be described thus: Growth inhibition IC50 in Ba/F3 cells expressing EML4-ALK L1196M. It is filed as cell-based.

Series [4] concerns the target T3, ALK protein in SR (NPM-ALK) cells (Homo sapiens, UniProt Q9UM73).
T3 construct: NPM (nucleophosmin, NPM1, P06748) fusion partner; host or cells: SR (ALCL) cells; the other entry of the earlier key: NPM1 (P06748, Nucleophosmin)
The series can be described thus: Western blot of ALK protein level (degradation, DC50), ALK phosphorylation and downstream signaling in SR cells. Type of series: cell-based. To be noted: for DC50: ALK protein degradation in SR cells; for ALK protein degradation within a time course: 100 nM, 4 hours (SIAIS1210117), up to 24 hours (epimer).

The next series has as its target T4, ALK protein in SR cells (Homo sapiens, UniProt Q9UM73).
T4 construct: NPM (nucleophosmin, NPM1, P06748) fusion partner; host or cells: SR (ALCL) cells; the other entry of the earlier key: NPM1 (P06748, Nucleophosmin)
The series can be described thus: Block of ALK degradation by proteosome inhibitors MG132 and MLN4924 in SR cells. Type of series: cell-based. From the text: To further validate the degradation effect act through proteosome mediated pathway, we also treated cells with two different proteosome inhibitors MG132 and MLN4924 to block protein degradation (FIG. 16).

Series [5] has as its system NCI-H2228 (EML4-ALK, V3) cells. Put plainly: Growth inhibition IC50 in lung adenocarcinoma H2228 cells (WST). Type of series: cell-based. The settings on record: Homo sapiens, WST (Table 3). From the text: Experiments were repeated at least three times.
Besides above, we also tested the dosage-dependent effects on the growth inhibition in H2228 cells. […] (Table 3).

In series [6] the target is T5, ALK protein in H3122 (EML4-ALK) cells (Homo sapiens, UniProt Q9UM73).
T5 construct: EML4 (Echinoderm microtubule-associated protein-like 4, Q9HC35) fusion partner, variant 1; host or cells: NCI-H3122 lung adenocarcinoma cells; the other entry of the earlier key: EML4 (Q9HC35, Echinoderm microtubule-associated protein-like 4)
The series can be described thus: Western blot of ALK protein level (degradation, DC50), ALK phosphorylation and downstream signaling in H3122 cells. Type of series: cell-based.

For a further series, the system named is MOLM13 cells (FLT3-ITD). Put plainly: Growth inhibition IC50 in FLT3-ITD AML cell line MOLM13. It is filed as cell-based. To be noted: Homo sapiens, MOLM-13, MOLM13 cells.
For series [7], the system named is U118MG cells (FIG-ROS1 gene fusion). The series can be described thus: Growth inhibition IC50 in ROS1 mutant glioblastoma cell line U118MG (72 hours). It is filed as cell-based. The settings on record: Homo sapiens, U-118-MG, U118MG cells, 72 hours.
Series [8] has as its system PC9Brc1 (EGFR, exon 19 del+T790M) cells. The series can be described thus: Growth inhibition IC50 in EGFR mutant lung cancer PC9Brc1 cells. It is filed as cell-based. The settings on record: CTB, n ≥ 3, read-out: Half Inhibitory Concentration (IC50) Mean.
Description: as §3, §4
For the next series, the target named is T6, Ba/F3 (EML4-ALK/C1156Y) (Homo sapiens, UniProt Q9UM73, C1156Y, cells depend on it).
T6 construct: Q9HC35 (Echinoderm microtubule-associated protein-like 4)
Put plainly: Growth inhibition IC50 in Ba/F3 cells expressing EML4-ALK C1156Y. Type of series: cell-based.

The subject of series [9] is SW48 cell line (EGFR G719S). The series can be described thus: Growth inhibition IC50 in EGFR G719S colorectal cancer cell line SW48. It is filed as cell-based. To be noted: Homo sapiens, CTG, n = 2, read-out: Half Inhibitory Concentration (IC50) Mean.
Description: as §4
The next series relates to PC9Brc1 cells. Put plainly: Colony formation assay in PC9Brc1 cells. Type of series: cell-based. The settings on record: PC9 Brc1 cells. As for the experimental part:
as §1
(§2) ALK PROTAD compound SIAIS1210117 and its negative control epimer SIAIS219050 were used.

Another series relates to PC9 cells. Put plainly: Colony formation assay in PC9 cells. Type of series: cell-based. As for the experimental part:
as §1, §2

Setting [10] is: n = 2, reagent CTG, read-out: Half Inhibitory Concentration (IC50) Mean.

Like-named read-outs stand apart in the source and are kept apart here.

Description for Ba/F3 (EML4-ALK/C1156Y): as §4
Description for Ba/F3 (EML4-ALK/L1196M): as §4
Description for Ba/F3 (EML4-ALK/WT): as §4
Description for MOLM13 cells (FLT3-ITD): as §4

One may read the half-life as the time needed for the level to fall by half in the phase considered. For orientation: Tmax means the time from dosing to the highest level. Broadly, the GI50 is the concentration that inhibits growth by half. Read a high GI50 as lower sensitivity of the cells. Usually DC50 stands for the concentration at which degradation of the target reaches its halfway point. Higher therefore signals a less potent degrader. For `COc1cc(N2CCC(N3CCN(C(=O)CNc4cccc5c4C(=O)N(C4CCC(=O)NC4=O)C5=O)CC3)CC2)ccc1Nc1ncc(Cl)c(Nc2ccccc2P(C)(C)=O)n1` (stereo not shown) [SIAIS164018, 4-((2-(4-(1-(4-((5-chloro-4-((2-(dimethylphosphoryl)phenyl)amino)pyrimidin-2-yl)amino)-3-methoxyphenyl)piperidin-4-yl)piperazin-1-yl)-2-oxoethyl)amino)-2-(2,6-dioxopiperidin-3-yl)isoindoline-1,3-dione], the bioavailability in series [1] (IP, 2 mg/kg) came to 157%; in series [1] (PO, 10 mg/kg), 18.4%. The half-life was 3.65 h in series [1] (IP, 2 mg/kg, read-out: serum half-life (converted)); roughly 4.65 h in series [1] (IV, single dose 2 mg/kg, read-out: serum clearance half-life (converted)); 7.09 h in series [1] (PO, 10 mg/kg, read-out: serum half-life (converted)). The time of peak concentration (Tmax) was roughly 2.67 h in series [1] (IP, 2 mg/kg, read-out: time to maximal serum peak level (Tmax)) and 2 h in series [1] (PO, 10 mg/kg, read-out: Tmax). Moreover, the clearance in series [1] (IV, single dose 2 mg/kg, read-out: clearance rate, mean value) is roughly 22.6 mL/min/kg. The IC50 in [2] turned out to be 150 nM; with SR (NPM-ALK) cells, 2 ± 1.4 nM; in [5] it was 17.9 nM; with MOLM13 cells (FLT3-ITD) (setting [10]), 79 nM; with MOLM13 cells (FLT3-ITD) (read-out: IC50), 79 nM; in series [7] (setting [10]), 16900 nM. Further, the IC50 in series [8] was determined as 900 nM; in series [9], 2760 nM. Further, the GI50 at Ba/F3 (EML4-ALK/WT) amounted to 30.9 nM; on Ba/F3 (EML4-ALK/L1196M), 57.4 nM; at Ba/F3 (EML4-ALK/C1156Y), 42.7 nM. In the series with H2228 cells (EML4-ALK), the colony formation entry was “dramatically inhibited”. Moreover, the “phosphorylation of ALK protein and activation of PI3K/AKT pathway” value in [3] is on record as “inhibited”. Further, the 50% degradation concentration (DC50) in series [4] fell in the range of 0.5 to 1 nM; in [6] (ALK protein degradation in H3122 cells) it was 1 to 10 nM. Further, the “concentration at which ALK proteins were degraded” value in series [4] (SR cells, western blot) is “less than 1 nM”. The “concentration inhibiting the phosphorylation of ALK proteins” value in series [4] (SR cells, western blot) is recorded as 0.1 nM. In series [4] (SR cells, western blot), the “downstream signaling pathway (PI3K/AKT, MEK/ERK and STAT3)” value was “significantly inhibited”. In addition, the ALK protein degradation result in series [4] (SR cells, western blot, 16 hours, up to 500 nM) is “effectively degrade ALK proteins at nano mole concentration”. Besides, the “reduction of ALK protein level and its block by MG132 and MLN4924” value (“reduction” for short) on ALK protein in SR cells was “able to be blocked”. Moreover, the “ALK protein level / degradation” value in [6] (H3122 cells, western blot, up to 500 nM) is “a similar effects was observed”.

Turning to `COc1cc(N2CCC(NC(=O)CCCCCCCCCC(=O)N[C@H](C(=O)N3C[C@@H](O)C[C@H]3C(=O)NCc3ccc(-c4scnc4C)cc3)C(C)(C)C)CC2)ccc1Nc1ncc(Cl)c(Nc2ccccc2P(C)(C)=O)n1` [SIAIS219050, N1-(1-(4-((5-chloro-4-((2-(dimethylphosphoryl)phenyl)amino)pyrimidin-2-yl)amino)-3-methoxyphenyl)piperidin-4-yl)-N11-((S)-1-((2S,4S)-4-hydroxy-2-((4-(4-methylthiazol-5-yl)benzyl)carbamoyl)pyrrolidin-1-yl)-3,3-dimethyl-1-oxobutan-2-yl)undecanediamide], in the series with PC9Brc1 cells, the colony formation result is recorded as “could not”. In addition, the “ALK protein degradation within a time course” value in [4] (SR cells) is given as “did not induce degradation of ALK protein”. The “reduction” value at ALK protein in SR cells is “did not have such effect”.

For `COc1cc(N2CCC(NC(=O)CCCCCCCCCC(=O)N[C@H](C(=O)N3C[C@H](O)C[C@H]3C(=O)NCc3ccc(-c4scnc4C)cc3)C(C)(C)C)CC2)ccc1Nc1ncc(Cl)c(Nc2ccccc2P(C)(C)=O)n1` [SIAIS1210117, N1-(1-(4-((5-chloro-4-((2-(dimethylphosphoryl)phenyl)amino)pyrimidin-2-yl)amino)-3-methoxyphenyl)piperidin-4-yl)-N11-((S)-1-((2S,4R)-4-hydroxy-2-((4-(4-methylthiazol-5-yl)benzyl)carbamoyl)pyrrolidin-1-yl)-3,3-dimethyl-1-oxobutan-2-yl)undecanediamide], the IC50 in series [2] is 106 nM; in the series on SR (NPM-ALK) cells, 1.7 ± 1 nM; in [5], 30.3 nM; with MOLM13 cells (FLT3-ITD) (setting [10]), 345 nM; in [7] (setting [10]) it was 920 nM; in series [7] (read-out: IC50) it was roughly 920 nM. Also, the IC50 in [8] is 460 nM; in series [9], 1360 nM. Besides, the colony formation entry was “able to inhibit” with PC9 cells, “dramatically inhibited” in the series on H2228 cells (EML4-ALK) and “able to inhibit” in the series on PC9Brc1 cells. Further, the GI50 on Ba/F3 (EML4-ALK/WT) stood at 123 nM; on Ba/F3 (EML4-ALK/L1196M) it was 170 nM; at Ba/F3 (EML4-ALK/C1156Y), 120 nM. The DC50 in series [4] is 0.5 to 10 nM. In addition, the “ALK protein degradation within a time course” value in [4] (SR cells) is given as “significant ALK protein degradation”. For the same compound, the “reduction” value on ALK protein in SR cells was “able to be blocked”.

The values above are taken from patent US11771709B2, “ALK protein degradation agent and anti-tumor application thereof” (ShanghaiTech University, priority 2017, dated 2023).
